Test results published in patent US20020026053A1, “Novel 3-(substituted) -2- indolinones compounds and use thereof as inhibitors of protein kinase activity” (priority 1997, published 2002).

Biological target: T1, Met receptor (EGFR/Met chimeric cells, EMR) (Homo sapiens, UniProt P08581)
T1 construct: expressed in transfected cells; the other entry of the earlier key: EGFR (P00533, Epidermal growth factor receptor)
Experiment: Met Autophosphorylation Assay
Assay type: biochemical
Conditions: protocol P.130
Summary of the method: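 Met phosphorylation was measured by capture ELISA. Lysates (90 μg/100 μl, HNTG plus 1 mM PMSF) from transiently transfected EGFR/Met chimera (EMR) cells were bound for 60 min at room temperature to wells holding rabbit anti-Met (C-28) on goat anti-rabbit coat. Phosphotyrosine was the read-out.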

T1 sequence (P08581 with tags, fused parts or gaps): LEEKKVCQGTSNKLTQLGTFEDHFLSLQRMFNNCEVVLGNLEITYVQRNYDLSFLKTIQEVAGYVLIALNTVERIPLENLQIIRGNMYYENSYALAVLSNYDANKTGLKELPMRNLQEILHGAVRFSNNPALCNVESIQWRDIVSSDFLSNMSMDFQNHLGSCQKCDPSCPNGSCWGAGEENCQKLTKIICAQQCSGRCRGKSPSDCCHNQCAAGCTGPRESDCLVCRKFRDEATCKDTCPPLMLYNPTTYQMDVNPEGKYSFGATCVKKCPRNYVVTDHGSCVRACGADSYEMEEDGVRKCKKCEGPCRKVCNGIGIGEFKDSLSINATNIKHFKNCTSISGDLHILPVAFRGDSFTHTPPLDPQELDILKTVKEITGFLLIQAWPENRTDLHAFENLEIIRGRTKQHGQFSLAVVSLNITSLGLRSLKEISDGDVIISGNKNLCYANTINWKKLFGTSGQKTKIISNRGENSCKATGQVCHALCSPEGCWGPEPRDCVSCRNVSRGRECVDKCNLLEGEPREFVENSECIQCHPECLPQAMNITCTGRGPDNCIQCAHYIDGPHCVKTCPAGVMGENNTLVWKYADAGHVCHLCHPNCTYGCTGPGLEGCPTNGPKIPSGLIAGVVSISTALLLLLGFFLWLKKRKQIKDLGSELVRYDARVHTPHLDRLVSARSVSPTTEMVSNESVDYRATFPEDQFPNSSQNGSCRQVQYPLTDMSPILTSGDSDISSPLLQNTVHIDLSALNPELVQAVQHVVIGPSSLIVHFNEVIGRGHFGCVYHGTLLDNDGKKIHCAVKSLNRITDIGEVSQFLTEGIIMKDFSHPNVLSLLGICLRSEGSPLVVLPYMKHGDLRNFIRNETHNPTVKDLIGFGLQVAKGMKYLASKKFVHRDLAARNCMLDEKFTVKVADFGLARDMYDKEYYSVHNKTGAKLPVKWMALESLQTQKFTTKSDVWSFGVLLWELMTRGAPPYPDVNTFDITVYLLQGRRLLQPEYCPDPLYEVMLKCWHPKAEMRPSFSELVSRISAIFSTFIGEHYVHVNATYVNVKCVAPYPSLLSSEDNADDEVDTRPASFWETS

Row | SMILES | Met Kinase % Inhibition (P.130) [%]
1 | O=C1Nc2ccc(CCCl)cc2C1=Cc1cccc(F)c1 [10736/G07] | −0.2
2 | O=C1Nc2ccc(CCCl)cc2C1=Cc1ccccc1F [10736/G08] | 6.6
3 | CCc1ccc(C=C2C(=O)Nc3ccc(CCCl)cc32)cc1 [10736/G09] | 16.2
4 | COc1cccc(C=C2C(=O)Nc3ccc(CCCl)cc32)c1 [10736/G10] | 5.7
5 | O=C1Nc2ccc(CCCl)cc2C1=Cc1ccccc1Cl [10736/G11] | 10.3
6 | Cc1c(Br)cc(Br)c2c1C(=Cc1ccc(Cl)cc1)C(=O)N2 [10736/H02] | 62.8
7 | Cc1c(Br)cc(Br)c2c1C(=Cc1ccccc1C(F)(F)F)C(=O)N2 [10736/H03] | 27.7
8 | Cc1cccc(C=C2C(=O)Nc3c(Br)cc(Br)c(C)c32)c1 [10736/H04] | 27.2
9 | Cc1ccc(C=C2C(=O)Nc3c(Br)cc(Br)c(C)c32)cc1 [10736/H05] | 21.1
10 | Cc1c(Br)cc(Br)c2c1C(=Cc1cccc(Cl)c1)C(=O)N2 [10736/H06] | 27.4
